As usually defined, the Ki is a measure of affinity in units of concentration, obtained from inhibition or displacement. A low value points to a stronger hold on the target.

Results on 16 molecules are retold here after BindingDB's records for PubMed 10215699 (Gliatech, 1999).

Where “and” joins values, the source holds several entries; their conditions need not be identical. Equal entries are not always repeated.

In one experiment the target is Histamine H3 receptor (Homo sapiens, UniProt Q9Y5N1).
Chain of Histamine H3 receptor (Q9Y5N1 whole entry): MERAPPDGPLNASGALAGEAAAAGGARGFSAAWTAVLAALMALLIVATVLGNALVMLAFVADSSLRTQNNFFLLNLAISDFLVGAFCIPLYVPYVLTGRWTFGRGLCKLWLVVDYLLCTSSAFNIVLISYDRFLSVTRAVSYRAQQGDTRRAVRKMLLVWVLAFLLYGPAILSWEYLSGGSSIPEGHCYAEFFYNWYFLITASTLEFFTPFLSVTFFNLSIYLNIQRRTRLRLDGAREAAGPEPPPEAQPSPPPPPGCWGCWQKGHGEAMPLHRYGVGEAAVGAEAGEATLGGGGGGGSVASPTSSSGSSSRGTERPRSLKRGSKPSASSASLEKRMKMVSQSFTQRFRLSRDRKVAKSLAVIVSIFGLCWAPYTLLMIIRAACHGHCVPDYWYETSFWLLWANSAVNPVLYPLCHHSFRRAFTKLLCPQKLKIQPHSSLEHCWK
The molecule `C(=CCCC1CCCCC1)CCc1cnc[nH]1` [GT 2228] gave an inhibition constant Ki of 3.2 nM.

For another experiment, the target named is Histamine H2 receptor (Homo sapiens, UniProt P25021).
Chain of Histamine H2 receptor (P25021 whole entry): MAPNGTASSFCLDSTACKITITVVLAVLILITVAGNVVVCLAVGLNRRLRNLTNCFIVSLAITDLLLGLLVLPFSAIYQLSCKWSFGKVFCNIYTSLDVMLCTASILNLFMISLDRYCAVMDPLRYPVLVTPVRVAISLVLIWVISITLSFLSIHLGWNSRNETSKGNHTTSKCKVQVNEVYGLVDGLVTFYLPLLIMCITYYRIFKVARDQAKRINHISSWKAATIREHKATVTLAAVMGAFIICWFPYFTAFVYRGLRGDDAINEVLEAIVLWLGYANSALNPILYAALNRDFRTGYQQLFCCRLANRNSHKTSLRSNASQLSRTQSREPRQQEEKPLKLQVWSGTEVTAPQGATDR
`C(=CCCC1CCCCC1)CCc1cnc[nH]1` [GT 2228] registered a Ki of 4470 nM.

The target in the next experiment is Hrh3 protein (Rattus norvegicus, UniProt Q5PPG3).
Chain of Hrh3 protein (Q5PPG3 whole entry): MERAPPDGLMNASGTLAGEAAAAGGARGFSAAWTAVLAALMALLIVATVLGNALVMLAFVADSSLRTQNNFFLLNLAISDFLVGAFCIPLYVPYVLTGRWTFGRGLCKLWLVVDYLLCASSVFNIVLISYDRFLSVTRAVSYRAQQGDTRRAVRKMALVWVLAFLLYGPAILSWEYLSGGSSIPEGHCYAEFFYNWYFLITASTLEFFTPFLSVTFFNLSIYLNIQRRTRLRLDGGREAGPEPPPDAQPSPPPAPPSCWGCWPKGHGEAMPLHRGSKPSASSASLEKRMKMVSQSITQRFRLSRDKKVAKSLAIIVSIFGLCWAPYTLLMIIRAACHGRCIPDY
`C(#CCCc1c[nH]cn1)CCCC1CCCCC1` [GT 2287] returned an inhibition constant (Ki) of 3.4 nM.

With `N[C@H](C(=O)NCCc1c[nH]cn1)c1ccccc1` [GT 2146], the Ki was determined as 630 nM. The same measure, in the same setting: the result for `C(=CCCC1CCCCC1)CCc1cnc[nH]1` [GT 2228] reads 4.2 nM and 15.2 nM; that for `CC(C)(C)CCC#CCCc1c[nH]cn1`, 0.83 nM; that for `C(#CCCC1CCCCC1)CCc1c[nH]cn1` [GT 2260], 2.9 nM. Take `C(#Cc1c[nH]cn1)CCCC1CCCCC1` [GT 2288]: the Ki was 1030 nM. Same read-out and setting: the result for `N[C@H](C=CCCc1cnc[nH]1)CC1CCCCC1` [GT 2231] reads 1 nM; that for `N[C@@H](Cc1ccccc1)C(=O)NCCc1c[nH]cn1` [GT 2130], 104 nM; that for `C(=CCCc1cnc[nH]1)CCc1ccccc1` [GT 2327], 5.5 nM.

The molecule `N[C@H](Cc1ccccc1)C(=O)NCCc1c[nH]cn1` [GT 2136] gave a Ki of 2810 nM.

Molecule `O=C(CCCC1CCCCC1)NCCc1cnc[nH]1` [GT 2174] displayed an inhibition constant (Ki) of 16 nM. The same measure, in the same setting: the result for `C(#CCCC1CCCC1)CCc1c[nH]cn1` [GT 2286] reads 0.95 nM; that for `CN[C@@H](Cc1ccccc1)C(=O)NCCc1c[nH]cn1` [GT 2142], 1590 nM; that for `N[C@@H](CCc1ccccc1)C(=O)NCCc1c[nH]cn1` [GT 2148], 11 nM. On the same count and under the same terms, under `N[C@@H](CC1CCCCC1)C(=O)NCCc1cnc[nH]1` [GT 2140] stands 31 nM; under `c1ncc(CCCCCCC2CCCCC2)[nH]1` [GT 2321], 75 nM.
